# Counter-ions that a name gives are not always drawn.
# Experiments:
# human thrombin = human thrombin (Homo sapiens, UniProt P00734); assay: Chromogenic thrombin inhibition assay (substrate S-2238); format: biochemical; conditions: purified human thrombin, chromogenic substrate S-2238 83 μM, 37° C., mean of duplicates
# [1] = target: T1, human coagulation factor Xa (Homo sapiens, UniProt P00742); assay: Chromogenic F Xa inhibition assay (substrate S-2765); format: biochemical; conditions: purified human factor Xa, chromogenic substrate S-2765 62.5 μM, 37° C., mean of duplicates
# T1 construct: purchased Enzyme Research Laboratories HFXa
# T1 sequence (P00742 235-488 limits assumed): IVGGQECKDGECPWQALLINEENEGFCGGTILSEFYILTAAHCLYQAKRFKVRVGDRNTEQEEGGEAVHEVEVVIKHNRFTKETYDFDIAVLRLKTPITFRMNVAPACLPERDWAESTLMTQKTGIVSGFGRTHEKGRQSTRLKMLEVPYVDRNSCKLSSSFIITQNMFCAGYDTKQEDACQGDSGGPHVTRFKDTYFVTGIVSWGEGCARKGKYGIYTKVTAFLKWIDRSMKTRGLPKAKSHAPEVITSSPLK
# T1 sequence (P00742 41-179 partner limits assumed): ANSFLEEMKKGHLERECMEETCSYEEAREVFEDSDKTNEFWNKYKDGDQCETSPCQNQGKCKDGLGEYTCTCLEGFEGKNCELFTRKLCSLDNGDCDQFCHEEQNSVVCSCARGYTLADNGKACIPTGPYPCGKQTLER
SMILES,IC50 (human thrombin) [nM],IC50 [1] [nM]
"CCc1c(N2CCOCC2=O)cccc1S(=O)(=O)N[C@@H](CNC(=O)c1csc(Cl)c1)C(=O)N1CCOC[C@@H]1C [Example 2, 5-Chloro-thiophene-3-carboxylic acid [(S)-2-[2-ethyl-3-(3-oxo-morpholin-4-yl)-benzenesulfonylamino]-3-((S)-3-methyl-morpholin-4-yl)-3-oxo-propyl]-amide]",250,9.8
"CCc1c(N2CCOCC2=O)cccc1S(=O)(=O)N[C@@H](CNC(=O)c1ccc(Cl)s1)C(=O)N1CCO[C@H](C)C1 [Example 3, 5-Chloro-thiophene-2-carboxylic acid [(S)-2-[2-ethyl-3-(3-oxo-morpholin-4-yl)-benzenesulfonylamino]-3-((R)-2-methyl-morpholin-4-yl)-3-oxo-propyl]-amide]",55,1.48
"O=C(NC[C@H](NS(=O)(=O)c1cccc(N2CCCCC2=O)c1C(F)(F)F)C(=O)N1CCN(C2CC2)CC1)c1ccc(Cl)s1 [Example 7, 5-Chloro-thiophene-2-carboxylic acid {(S)-3-(4-cyclopropyl-piperazin-1-yl)-3-oxo-2-[3-(2-oxo-piperidin-1-yl)-2-trifluoromethyl-benzenesulfonylamino]propyl}amide trifluoroacetate]",222,1.02
"O=C(NC[C@H](NS(=O)(=O)c1cccc(N2CCCCC2=O)c1OC(F)F)C(=O)N1CCN(C2CC2)CC1)c1ccc(Cl)s1 [Example 8, 5-Chloro-thiophene-2-carboxylic acid {(S)-3-(4-cyclopropyl-piperazin-1-yl)-2-[2-difluoromethoxy-3-(2-oxo-piperidin-1-yl)-benzenesulfonylamino]-3-oxo-propyl}-amide trifluoroacetate]",10.4,0.98
"CCOC(=O)C1CCN(C(=O)[C@H](CNC(=O)c2ccc(Cl)s2)NS(=O)(=O)c2cccc(N3CCCCC3=O)c2OC(F)F)CC1 [Example 9, 1-{(S)-3-[(5-Chloro-thiophene-2-carbonyl)-amino]-2-[2-difluoromethoxy-3-(2-oxo-piperidin-1-yl)-benzenesulfonylamino]-propionyl}-piperidine-4-carboxylic acid ethyl ester]",10.5,0.52
"Cc1noc(C2CCN(C(=O)[C@H](CNC(=O)c3ccc(Cl)s3)NS(=O)(=O)c3cccc(N4CCCCC4=O)c3OC(F)F)CC2)n1 [Example 11, 5-Chloro-thiophene-2-carboxylic acid {(S)-2-[2-difluoromethoxy-3-(2-oxo-piperidin-1-yl)-benzenesulfonylamino]-3-[4-(3-methyl-[1,2,4]oxadiazol-5-yl)-piperidin-1-yl]-3-oxo-propyl}amide]",381,1.74
"O=C(NC[C@H](NS(=O)(=O)c1cccc(N2CCCC2=O)c1Cl)C(=O)N1CCNCC1)c1ccc(Cl)s1 [Example 15, 5-Chloro-thiophene-2-carboxylic acid {(S)-2-[2-chloro-3-(2-oxo-pyrrolidin-1-yl)-benzenesulfonylamino]-3-oxo-3-piperazin-1-yl-propyl}-amide]",658,1.32
"CN1CCN(C(=O)[C@H](CNC(=O)c2ccc(Cl)s2)NS(=O)(=O)c2cccc(N3CCCC3=O)c2C(F)F)CC1 [Example 17, 5-Chloro-thiophene-2-carboxylic acid [(S)-2-[2-difluoromethyl-3-(2-oxo-pyrrolidin-1-yl)-benzenesulfonylamino]-3-(4-methyl-piperazin-1-yl)-3-oxo-propyl]-amide trifluoro acetate]",28,1.81
"Cc1c(N2CCCC2=O)cccc1S(=O)(=O)N[C@@H](CNC(=O)c1ccc(Cl)s1)C(=O)N1CCc2sccc2C1 [Example 154, 5-Chloro-thiophene-2-carboxylic acid {(S)-3-(6,7-dihydro-4H-thieno[3,2-c]pyridin-5-yl)-2-[2-methyl-3-(2-oxo-pyrrolidin-1-yl)-benzenesulfonylamino]-3-oxo-propyl}-amide]",3.48,1.92
"O=C(NC[C@H](NS(=O)(=O)c1cc(F)cc(N2CCCCC2=O)c1Cl)C(=O)N1CCN(CC(F)(F)F)CC1)c1ccc(Cl)s1 [Example 183, 5-Chloro-thiophene-2-carboxylic acid {(S)-2-[2-chloro-5-fluoro-3-(2-oxo-piperidin-1-yl)-benzenesulfonylamino]-3-oxo-3-[4-(2,2,2-trifluoro-ethyl)-piperazin-1-yl]-propyl}-amide]",40,0.4

# Next, values leading:
IC50 (human thrombin) [nM],IC50 [1] [nM],SMILES
61,2.8,"CCc1c(N2CCOCC2=O)cccc1S(=O)(=O)N[C@@H](CNC(=O)c1ccc(Cl)s1)C(=O)N1CCC[C@@H](OC)C1 [Example 4, 5-Chloro-thiophene-2-carboxylic acid [(S)-2-[2-ethyl-3-(3-oxo-morpholin-4-yl)-benzenesulfonylamino]-3-((R)-3-methoxy-piperidin-1-yl)-3-oxo-propyl]-amide]"
49,9.8,"O=C(NC[C@H](NS(=O)(=O)c1cccc(N2CCOCC2=O)c1Cl)C(=O)N1CCCCCC1)c1ccc(Cl)s1 [Example 5, 5-Chloro-thiophene-2-carboxylic acid {(S)-3-azepan-1-yl-2-[2-chloro-3-(3-oxo-morpholin-4-yl)-benzenesulfonylamino]-3-oxo-propyl}-amide]"
5.64,0.88,"COc1c(N2CCOCC2=O)cc(F)cc1S(=O)(=O)N[C@@H](CNC(=O)c1ccc(Cl)s1)C(=O)N1CCCCCC1 [Example 6, 5-Chloro-thiophene-2-carboxylic acid {(S)-3-azepan-1-yl-2-[5-fluoro-2-methoxy-3-(3-oxo-morpholin-4-yl)-benzenesulfonylamino]-3-oxo-propyl}-amide]"
19,1.44,"CN1CCN(C(=O)[C@H](CNC(=O)c2ccc(Cl)s2)NS(=O)(=O)c2cc(F)cc(N3CCCC3)c2Cl)CC1 [Example 13, 5-Chloro-thiophene-2-carboxylic acid [(S)-2-(2-chloro-5-fluoro-3-pyrrolidin-1-yl-benzenesulfonylamino)-3-(4-methyl-piperazin-1-yl)-3-oxo-propyl]-amide trifluoro acetate]"
54,1.3,"COCCN1CCN(C(=O)[C@H](CNC(=O)c2ccc(Cl)s2)NS(=O)(=O)c2cc(F)cc(N3CCCC3=O)c2C)CC1 [Example 16, 5-Chloro-thiophene-2-carboxylic acid {(S)-2-[5-fluoro-2-methyl-3-(2-oxo-pyrrolidin-1-yl)-benzenesulfonylamino]-3-[4-(2-methoxy-ethyl)-piperazin-1-yl]-3-oxo-propyl}-amide trifluoro acetate]"
27,1.31,"Cc1c(N2CCCC2=O)cc(F)cc1S(=O)(=O)N[C@@H](CNC(=O)c1ccc(Cl)s1)C(=O)N1CCN(C)CC1 [Example 202, 5-Chloro-thiophene-2-carboxylic acid [(S)-2-[5-fluoro-2-methyl-3-(2-oxo-pyrrolidin-1-yl)-benzenesulfonylamino]-3-(4-methyl-piperazin-1-yl)-3-oxo-propyl]-amide]"
